Experimental data from patent US10100032B2, “Crystalline forms of 3-(4-amino-1-oxo-1,3 dihydro-isoindol-2-yl)-piperidine-2,6-dione” (AMPLIO PHARMA, LLC, priority 2011, dated 2018).

Tests used:
[1] = Water slurry analysis of lenalidomide cocrystals; type: physicochemical; set-up: key: If the cocrystal was intact, the cocrystal could be described as less soluble than the stable 3-(4-amino-1-oxo-1,3 dihydro-isoindol-2-yl)-piperidine-2,6-dione form in water (characterized as “stable”); the cocrystal transformation indicates that under those conditions the cocrystal is more soluble than the stable form of the 3-(4-amino-1-oxo-1,3 dihydro-isoindol-2-yl)-piperidine-2,6-dione in water (characterized as “transformed”); details: slurry of ~8 to 10 mg of cocrystal in 1 mL of pure water, stirred for 24 hours, solid isolated by filtration and analyzed by XRPD
Method: The solubility of the cocrystals obtained in Examples 1, 2, 3, 4, 5, 6, 7, and 8 were compared to the stable form of the API in pure water by creating a slurry of ˜8 to 10 mg of cocrystal in 1 mL of water. The resulting slurry was stirred for 24 hours. The solid was isolated by filtration and analyzed by XRPD.

[2] = Stability testing of lenalidomide cocrystals; type: physicochemical; set-up: key: the solids remained as the starting cocrystal material, indicating that they are stable under these conditions (“stable”); transformed partially or completely into a different crystalline material, indicating that they are not stable under these conditions (“not stable”); details: stored at 40 degrees Celsius and 75% relative humidity (saturated NaCl) for 14 days, XRPD

## Nc1cccc2c1CN(C1CCC(=O)NC1=O)C2=O [L-tartaric acid cocrystal of lenalidomide] [3-(4-amino-1-oxo-1,3-dihydroisoindol-2-yl)piperidine-2,6-dione-L-tartaric acid cocrystal]
[1]
  Water slurry result: transformed
[2]
  Stability test result: not stable

## Nc1cccc2c1CN(C1CCC(=O)NC1=O)C2=O (centres unmarked) [ammonium chloride cocrystal of lenalidomide] [3-(4-amino-1-oxo-1,3-dihydroisoindol-2-yl)piperidine-2,6-dione-ammonium chloride cocrystal]
[1]
  Water slurry result: transformed
[2]
  Stability test result: stable

## Nc1cccc2c1CN(C1CCC(=O)NC1=O)C2=O (centres unmarked) [gallic acid cocrystal of lenalidomide, 3-(4-amino-1-oxo-1,3-dihydroisoindol-2-yl)piperidine-2,6-dione-gallic acid cocrystal]
[1]
  Water slurry result: transformed
[2]
  Stability test result: stable

## Nc1cccc2c1CN(C1CCC(=O)NC1=O)C2=O (centres unmarked) [malonic acid cocrystal of lenalidomide, 3-(4-amino-1-oxo-1,3-dihydroisoindol-2-yl)piperidine-2,6-dione-malonic acid cocrystal]
[1]
  Water slurry result: transformed
[2]
  Stability test result: not stable

## Nc1cccc2c1CN(C1CCC(=O)NC1=O)C2=O (centres unmarked) [oxallic acid cocrystal of lenalidomide, 3-(4-amino-1-oxo-1,3-dihydroisoindol-2-yl)piperidine-2,6-dione and oxalic acid cocrystal]
[1]
  Water slurry result: transformed
[2]
  Stability test result: stable

## Nc1cccc2c1CN(C1CCC(=O)NC1=O)C2=O (centres unmarked) [propyl gallate cocrystal of lenalidomide, 3-(4-amino-1-oxo-1,3-dihydroisoindol-2-yl)piperidine-2,6-dione-propylgallate cocrystal]
[1]
  Water slurry result: transformed
[2]
  Stability test result: not stable

## Nc1cccc2c1CN(C1CCC(=O)NC1=O)C2=O (centres unmarked) [urea cocrystal of lenalidomide, 3-(4-amino-1-oxo-1,3-dihydroisoindo-2-yl)piperidine-2,6-dione-urea cocrystal]
[1]
  Water slurry result: transformed
[2]
  Stability test result: stable
